The values that follow come from patent US20190142800A1, “SYNERGISTIC ANTIFUNGAL COMPOSITIONS AND METHODS THEREOF” (VYOME THERAPEUTICS LIMITED, priority 2016, published 2019).

SMILES strings stand for the structures.

One assay concerns M. furfur (MTCC 1374). As to the kind of experiment: Lipid assimilation in vitro assay: fatty acids/esters as nutrients for growth of M. furfur. The following applies: Sabouraud dextrose agar, after 6 days. The assay is classed as cell-based, Malassezia furfur. An excerpt:
Malassezia species are lipophilic unipolar yeasts recognized as commensals of skin that may be pathogenic under certain conditions (Jindo et al 2004: Indian Journal of Medical Microbiology (22: 179). To compare lipid requirements of the fungus most closely associated with dandruff/seborrheic dermatitis, the best studied Malassezia species is M. furfur. Lipid assimilation in vitro assay was designed to investigate lipid effect on growth of M. furfur (MTCC 1374).
Briefly, Sabouraud Dextrose containing low-melt agar was melted, cooled to 38° C. Fatty acids/esters constituents eg, propylene glycol monocaprylate (C-8), capric acid (C-10), caprylic acid (C-8), linoleic acid (C-18), oleic acid (C-18), palmitic acid (C-16), ethyl oleate (C-18), and oils containing fatty acid/esters eg, coconut oil, mustard oil etc., were added to study the growth of the fungus (Kaw Bing CHUA, et al Malaysian J Pathol (2005) 27(2): 99). After solidification, agar plates were streaked with M. furfur innoculum adjusted to appropriate cfu/ml, aseptically. Positive control with 2% olive oil and negative control without fatty substance were also maintained.

Assay [1] has as its system azole resistant C. albicans MTCC 227. The experiment in a line: Checkerboard assay on azole resistant C. albicans MTCC 227. The format is cell-based, Candida albicans. The note with it: for MIC: Candida albicans, MTCC227, agent alone.
The next assay concerns C. albicans (ATCC-90028). The experiment in a line: Checkerboard assay on C. albicans (ATCC-90028). The assay is classed as cell-based, Candida albicans. The following applies: for MIC: Candida albicans, ATCC90028, agent alone, Table 8. The protocol:
(§1) The synergy is measured by determining the fractional inhibitory concentration (FIC) value of the combination. This experimental set up, called checkerboard method, allows measurement of a desired effect (inhibition of fungal growth in this case) at different combinations of various concentrations of the two agents (antifungal agent and fatty acid/ester). […] No agent is added to the penultimate column on the right and the bottom row. The final column on the right is used for growth control (only inoculum in broth) and sterility control (broth alone, no inoculum). […] FIC value for each agent in a particular well of the checkerboard layout was calculated by dividing the agent concentration in that well by the established MIC value of the agent against the test organism (Hsieh et al., Synergy assessed by checkerboard: A critical Analysis, Diagn. Microbiol. Infect Dis. (1993) 16:343-349). FIC values for both agents in a particular well were calculated in this way followed by determination of the FIC index (sum of the FICs of each drug in the concerned well). […] Agents Chemother. (2010) 54(2): 602-609].
(§2) Using the checkerboard layout experimental setup described above (FIG. 1A), various medium-chain fatty acids were tested for their ability to potentiate the activity of a known antifungal agent. Concentrations above and below the MIC of each test agent were tested using serial dilution. The same procedure was expanded to test combinations of various medium-chain fatty acids C-1 to C-14 (such caprylic acid, undecylenic acid and lauric acid) and esters thereof, with antifungal agents from various classes including azoles, allylamines, benzylamines, zinc pyrithione and piroctone olamine against both susceptible and resistant Trichophyton spp. (filamentous fungus) and Candida spp. (yeast).
(§3) Potentiation of the activity of antimycotic agents using ester derivatives of medium chain fatty acids was tested in a standard, well accepted in vitro assay system to check for synergy. This experimental set up, called checkerboard method, allows measurement of a desired effect (inhibition of fungal growth in this case) at different combinations of various concentrations of two agents. A chosen medium chain fatty acid (C-1 to C-14) or its ester derivative was tested for its ability to potentiate the activity of a known antifungal agent (various classes) using the checkerboard layout. Various concentrations above and below the MIC of each test agent were tested using serial dilution in Sabouraud dextrose broth. […] FIC value for a drug in a particular well of the checkerboard layout is calculated by dividing the drug concentration in that well by the established MIC value of the drug against the test organism (Hsieh et al., Synergy assessed by checkerboard: A critical Analysis, Diagn. Microbiol. Infect Dis. (1993) 16:343-349). FIC values for both test agents in a particular well are calculated in this way followed by determination of the FIC index (sum of the FICs of each drug in the concerned well).

In assay [2] the test system is terbinafine resistant Trichophyton interdigitale (GTB-2S). The experiment in a line: Checkerboard assay on terbinafine resistant Trichophyton interdigitale (GTB-2S). The note with it: for MIC: Trichophyton interdigitale, agent alone, Table 7. The assay is classed as cell-based. The protocol: as §1, with “FIC” for “FIC value for each agent in a particular well of the checkerboard layout was calculated by dividing the agent concentration in that well by the established MIC value of the agent against the test organism (Hsieh et al., Synergy assessed by checkerboard: A critical Analysis, Diagn. Microbiol. Infect Dis. (1993) 16:343-349). FIC”, “Chemother.” for “Chemother. (2010) 54(2): 602-609].”
as §2
as §3, with “FIC” for “FIC value for a drug in a particular well of the checkerboard layout is calculated by dividing the drug concentration in that well by the established MIC value of the drug against the test organism (Hsieh et al., Synergy assessed by checkerboard: A critical Analysis, Diagn. Microbiol. Infect Dis. (1993) 16:343-349). FIC”

Where [3] appears, read: agent's MIC in combination luliconazole + glyceryl monocaprylate.
Setting [4] is: combination luliconazole + glyceryl monocaprylate.
The mark [5] stands for this setting: Table 9, caprylic acid (C8) series.
The mark [6] stands for this setting: agent's MIC in combination luliconazole + caprylic acid.
[7] abbreviates: combination luliconazole + caprylic acid.
[8] abbreviates: antifungal in combination with caprylic acid.
[9] abbreviates: antifungal in combination with lauric acid.
Where [10] appears, read: antifungal in combination with propylene glycol monocaprylate.
Where [11] appears, read: antifungal in combination with undecylenic acid.
Where [12] appears, read: in combination with caprylic acid.
Where [13] appears, read: in combination with glyceryl monocaprylate.

`CCCCCCCC/C=C\CCCCCCCC(=O)OCC` [ethyl oleate]: in the assay with M. furfur (MTCC 1374), the “growth of M. furfur on culture media containing the fatty acid/ester or oil” value is reported as “confluent growth”.
For `CCCCCCCCCCCCCCCC(=O)O` [palmitic acid], the “growth of M. furfur on culture media containing the fatty acid/ester or oil” value with M. furfur (MTCC 1374) is recorded as “confluent growth”.
In the case of `CCCCCCCCCC(=O)O` [capric acid], the “growth of M. furfur on culture media containing the fatty acid/ester or oil” value in the assay on M. furfur (MTCC 1374) is reported as “no growth”.
For orientation: MIC means the lowest concentration that inhibits growth of the organism. `CCCCCCCC(=O)OCC(O)CO` (stereo not drawn) [Glyceryl monocaprylate]: the MIC stood at 1250 µg/mL in assay [1] (Table 11, glyceryl monocaprylate series); 500 µg/mL in the assay with C. albicans (ATCC-90028); 15.6 µg/mL in assay [2]. Moreover, the “Combination MIC” value worked out at 312.5 µg/mL in assay [1] (agent's MIC in combination antifungal + glyceryl monocaprylate (partner: other agent of same combination no.)), 31.25 µg/mL in the assay with C. albicans (ATCC-90028) (setting [3]) and 7.812 µg/mL in assay [2] (agent's MIC in combination terbinafine or butenafine + glyceryl monocaprylate). The results for the FIC (in assay [1] (combination antifungal + glyceryl monocaprylate); with C. albicans (ATCC-90028) (setting [4]); in assay [2] (combination terbinafine or butenafine + glyceryl monocaprylate)) were 0.25, 0.0625 and 0.5, respectively.
With `CCCCCCCC(=O)O` [Caprylic acid], the “growth of M. furfur on culture media containing the fatty acid/ester or oil” value with M. furfur (MTCC 1374) is on record as “no growth”. The results for the MIC (in assay [1] (setting [5]); with C. albicans (ATCC-90028); in assay [2]) were 250 µg/mL, 125 µg/mL and 15.6 µg/mL, respectively. Further, the “Combination MIC” value with C. albicans (ATCC-90028) (setting [6]) was determined as 31.25 µg/mL; in assay [2] (agent's MIC in combination terbinafine or butenafine + caprylic acid) it was 7.812 µg/mL. Further, the FIC in the assay with C. albicans (ATCC-90028) (setting [7]) was 0.25; in assay [2] (combination terbinafine or butenafine + caprylic acid) it was 0.5.
As for `CCCCC/C=C\C/C=C\CCCCCCCC(=O)O` [linoleic acid], the “growth of M. furfur on culture media containing the fatty acid/ester or oil” value with M. furfur (MTCC 1374) is recorded as “confluent growth”.
`CCCCCCCC/C=C\CCCCCCCC(=O)O` [oleic acid]: the “growth of M. furfur on culture media containing the fatty acid/ester or oil” value in the assay with M. furfur (MTCC 1374) is “confluent growth”.
Consider `N#C/C(=C1/SC[C@@H](c2ccc(Cl)cc2Cl)S1)n1ccnc1` [Luliconazole], for which the minimal inhibitory concentration (MIC) in assay [1] (setting [5]) turned out to be 8 µg/mL; in assay [1] (Table 10, propylene glycol monocaprylate series), 8 µg/mL; in assay [1] (Table 12, undecylenic acid (C11) series), 8 µg/mL; in assay [1] (Table 13, lauric acid (C12) series), 8 µg/mL; in the assay on C. albicans (ATCC-90028) it was 7.5 µg/mL. Besides, the “Combination MIC” value in assay [1] (agent's MIC in combination antifungal + caprylic acid (partner: other agent of same combination no.)) was determined as 0.5 µg/mL; in assay [1] (agent's MIC in combination antifungal + lauric acid (partner: other agent of same combination no.)), 1 µg/mL; in assay [1] (agent's MIC in combination antifungal + propylene glycol monocaprylate (partner: other agent of same combination no.)) it was 0.5 µg/mL; in assay [1] (agent's MIC in combination antifungal + undecylenic acid (partner: other agent of same combination no.)) it was 1 µg/mL; in the assay on C. albicans (ATCC-90028) (setting [6]), 0.117 µg/mL; with C. albicans (ATCC-90028) (setting [3]), 0.117 µg/mL. Also, the FIC index amounted to 0.3 in assay [1] (setting [8]); 0.25 in assay [1] (setting [9]); 0.187 in assay [1] (setting [10]); 0.187 in assay [1] (setting [11]); 0.265 in the assay with C. albicans (ATCC-90028) (setting [12]); 0.0781 with C. albicans (ATCC-90028) (setting [13]). The Interaction entry (in assay [1] (setting [8]); in assay [1] (setting [9]); in assay [1] (setting [10]); in assay [1] (setting [11]); with C. albicans (ATCC-90028) (setting [12]); in the assay on C. albicans (ATCC-90028) (setting [13])) was “Synergistic (Combinations that gave FIC indices less than 1 were designated “synergistic”)” in each case. Moreover, the FIC in assay [1] (combination antifungal + caprylic acid) stood at 0.062; in assay [1] (combination antifungal + lauric acid), 0.125; in assay [1] (combination antifungal + propylene glycol monocaprylate) it was 0.0625; in assay [1] (combination antifungal + undecylenic acid), 0.125; with C. albicans (ATCC-90028) (setting [7]), 0.015; in the assay on C. albicans (ATCC-90028) (setting [4]), 0.0156.
